# Columns and labels:
# [1] = biological target: MET kinase (c-MET), kinase domain of human Met (Homo sapiens, UniProt P08581); experiment: MET luminescence-based enzyme assay (Kinase-Glo)
# [2] = tested on: GTL16; experiment: GTL16 cell assay (EC50); type: cell-based; details: Homo sapiens, GTL 16; Table 2
# Experimental: Compounds were tested in the following assays in duplicate. 96-well XTT assay: Cells were grown in growth media containing various concentrations of compounds (duplicates) on a 96-well flat bottom plate for 72 hours at 37° C. in 5% CO2. The starting cell number was 5000 cells per well and volume was 120 μl. At the end of the 72-hour incubation, 40 μl of XTT labeling mixture (50:1 solution of sodium 3′-[1-(phenylaminocarbonyl)-3,4-tetrazolium]-bis(4-methoxy-6-nitro) benzene sulfonic acid hydrate and Electron-coupling reagent: PMS (N-methyl dibenzopyrazine methyl sulfate) were added to each well of the plate. After an additional 2-6 hours […] with a spectrophotometer.
# Chain of MET kinase (c-MET), kinase domain of human Met (P08581 1078-1345 limits assumed): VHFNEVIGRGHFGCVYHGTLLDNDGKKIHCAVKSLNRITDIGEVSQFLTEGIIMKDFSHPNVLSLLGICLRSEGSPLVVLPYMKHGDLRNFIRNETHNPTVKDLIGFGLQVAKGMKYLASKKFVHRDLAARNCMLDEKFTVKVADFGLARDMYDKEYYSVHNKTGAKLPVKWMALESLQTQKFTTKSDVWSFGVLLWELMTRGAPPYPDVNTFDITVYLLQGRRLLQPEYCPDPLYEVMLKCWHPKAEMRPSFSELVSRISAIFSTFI
Compound,IC50 [1],EC50 [2]
Cc1ccc2nnc(Cc3ccc4ncc(-c5ccc(C(=O)O)cc5)cc4c3)n2n1 [compound 136],100 to 1000 nM,1000 to 10000 nM
Cc1ccc2nnc(Cc3ccc4ncc(-c5cc6ccccc6[nH]5)cc4c3)n2n1 [compound 137],< 100 nM,100 to 1000 nM
Cc1ccc2nnc(Cc3ccc4ncc(-c5ccc[nH]5)cc4c3)n2n1 [compound 138],< 100 nM,1000 to 10000 nM
Cn1cc(-c2cnc3ccc(Cc4nnc5cccnn45)cc3c2)cn1 [compound 139],< 100 nM,< 100 nM
"COc1ccc2nnc(Cc3ccc4ncc(-c5cnn(C)c5)cc4c3)n2n1 [compound 140, 6-(6-Methoxy-[1,2,4]triazolo[4,3-b]pyridazin-3-ylmethyl)-3-(1-methyl-1H-pyrazol-4-yl)-quinoline]",< 100 nM,< 100 nM
Cn1cc(-c2cnc3ccc(Cc4nnc5ccc(-c6cnn(C)c6)nn45)cc3c2)cn1 [compound 141],< 100 nM,< 100 nM
"Cc1ccc2nnc(Cc3ccc4ncc(-c5cnc[nH]5)cc4c3)n2n1 [compound 142, 3-(1H-Imidazol-4-yl)-6-(6-methyl-[1,2,4]triazolo[4,3-b]pyridazin-3-ylmethyl)-quinoline]",100 to 1000 nM,100 to 1000 nM
CCC(=O)Cn1cc(-c2cnc3ccc(Cc4nnc5ccc(C)nn45)cc3c2)cn1 [compound 143],< 100 nM,< 100 nM
"Cc1ccc2nnc(Cc3ccc4ncc(-c5cnn(CCO)c5)cc4c3)n2n1 [compound 144, 2-{4-[6-(6-Methyl-[1,2,4]triazolo[4,3-b]pyridazin-3-ylmethyl)-quinolin-3-yl]pyrazol-1-yl}-ethanol]",< 100 nM,100 to 1000 nM
"Cc1ccc2nnc(Cc3c(F)cc4ncc(-c5cnn(C)c5)cc4c3F)n2n1 [compound 145, 5,7-Difluoro-3-(1-methyl-1H-pyrazol-4-yl)-6-(6-methyl-[1,2,4]triazolo[4,3b]pyridazin-3-ylmethyl)-quinoline]",< 100 nM,< 100 nM

# The next lines start with the values.
IC50 [1],EC50 [2],Compound
< 100 nM,< 100 nM,Cc1ccc2nnc(Cc3c(F)cc4ncc(-c5cnn(CCN6CCOCC6)c5)cc4c3F)n2n1 [compound 146]
< 100 nM,< 100 nM,COCCn1cc(-c2cnc3ccc(Cc4nnc5ccc(C)nn45)cc3c2)cn1 [compound 147]
< 100 nM,< 100 nM,Cc1ccc2nnc(Cc3ccc4ncc(-c5cnn(CCC#N)c5)cc4c3)n2n1 [compound 148]
< 100 nM,1000 to 10000 nM,"Cc1ccc2nnc(Cc3ccc4ncc(-c5cnn(CC(N)=O)c5)cc4c3)n2n1 [compound 149, 2-{4-[6-(6-Methyl-[1,2,4]triazolo[4,3-b]pyridazin-3-ylmethyl)-quinolin-3-yl]-pyrazol-1-yl}-acetamide]"
< 100 nM,1000 to 10000 nM,Cc1ccc2nnc(Cc3c(F)cc4ncc(-c5cnn(CC(=O)O)c5)cc4c3F)n2n1 [compound 151]
< 100 nM,100 to 1000 nM,Cc1ccc2nnc(Cc3ccc4ncc(-c5cnn(C6CNC6)c5)cc4c3)n2n1 [compound 153]
< 100 nM,100 to 1000 nM,Cc1ccc2nnc(Cc3ccc4ncc(-c5cnn(CCC(N)=O)c5)cc4c3)n2n1 [compound 154]
< 100 nM,100 to 1000 nM,"Cc1ccc2nnc(Cc3ccc4ncc(-c5cnn(CC6CNC6)c5)cc4c3)n2n1 [compound 155, 3-(1-Azetidin-3-ylmethyl-1H-pyrazol-4-yl)-6-(6-methyl-[1,2,4]triazolo[4,3-b]pyridazin-3-ylmethyl)-quinoline]"
< 100 nM,< 100 nM,"CCc1ccc2nnc(Cc3ccc4ncc(-c5cnn(C)c5)cc4c3)n2n1 [compound 157, 6-(6-Ethyl-[1,2,4]triazolo[4,3-b]pyridazin-3-ylmethyl)-3-(1-methyl-1H-pyrazol-4-yl)-quinoline]"
< 100 nM,< 100 nM,Cc1ccc2nnc(Cc3cc4cc(-c5cnn(C)c5)cnc4cc3F)n2n1 [compound 158]
